Test [1] concerns the target T1, PIM1 (Homo sapiens, UniProt P11309). Description: KINOMEscan competition binding assay (Kd).
Test [2] deals with T1, PIM1. As to the kind of experiment: Biochemical kinase assay, radiolabeled ATP filter binding (Reaction Biology). The conditions noted are these: 10 μM ATP, peptide substrate […].
Test [3] concerns the target T2, PIM2 (Homo sapiens, UniProt Q9P1W9). The test is described as above. The conditions noted are these: 10 μM ATP, peptide substrate […].
Test [4] concerns the target T2, PIM2. Description: KINOMEscan competition binding assay (Kd). The conditions noted are these: run in duplicate.
Test [5] deals with T3, PIM3 (Homo sapiens, UniProt Q86V86). Description: Biochemical kinase assay, radiolabeled ATP filter binding (Reaction Biology). The conditions noted are these: 10 μM ATP, peptide substrate RSRHSSYPAGT
The target of test [6] is T3, PIM3. As to the kind of experiment: KINOMEscan competition binding assay (Kd). The conditions noted are these: run in duplicate.
The next test concerns DU145. As to the kind of experiment: Cell Titer-Glo 2.0 luminescent cell viability assay. It is filed as cell-based. The conditions noted are these: Homo sapiens, DU-145; 72 hour incubation, cell viability (ATP luminescence). How it is done:
(§1) To obtain growth inhibition data of endodermal cancer cells for PIM kinase inhibitors, Compound 122 was tested against SNU-16, HepG2, MIA PaCa-2, SW480, DU145, HEK-293, PANC-1, and THLE-3 cell lines using CELL TITER-GLO® 2.0 Luminescent Cell Viability Assay (Promega Corporation, Madison, Wis.) at Reaction Biology Corporation (Maven, Pa.). All cell lines were purchased from American Type Culture Collection (ATCC, Manassas, Va.) and maintained in the recommended culture media in the presence of 10% fetal bovind serum, […] of penicillin and 100 µg/mL of streptomycin at 37° C. in a humidified atmosphere of 5% CO2 and 95% air. To initiate the growth inhibition study, Compound 122 was diluted in DMSO solution with 10-dose and 3-fold dilutions in a source plate starting at 50 mM. […] The cells in the cell culture plates were incubated with the compounds at 37° C. for 72 hours in a humidified atmosphere of 5% CO2 and 95% air. After a 72 hour incubation period, 25 μl of Cell Titer Glo 2.0 reagent was added to each well. The contents were mixed on an orbital shaker for 2 minutes and incubated at room temperature for 15 minutes to stabilize the luminescent signal. Luminescence was recorded by Envision 2104 Multilabel Reader (PerkinElmer, Santa Clara, Calif.). The number of viable cells in culture was determined based on quantitation of the ATP present in each culture well. […] Table 5 lists the IC50 values for Compound 122 in the tested cell lines.
(In general: Cellular ATP, detected with luciferase, serves as a proxy for viable cell number.)

The next test concerns THLE-3. The test is described as above. The test is classed as cell-based. The conditions noted are these: THLE3; 72 hour incubation, cell viability (ATP luminescence). How it is done: as §1
In another test the test system is SW480. The test is described as above. It is filed as cell-based. The conditions noted are these: Homo sapiens, 72 hour incubation, cell viability (ATP luminescence). How it is done: as §1
Another test concerns SNU-16. The test is described as above. It is filed as cell-based. The conditions noted are these: Homo sapiens, 72 hour incubation, cell viability (ATP luminescence). Here is the method: as §1
Another test concerns MIA PaCa-2. The test is described as above. It is filed as cell-based. The conditions noted are these: Homo sapiens, 72 hour incubation, cell viability (ATP luminescence). How it is done: as §1
In a further test the test system is HEK-293. The test is described as above. It is filed as cell-based. The conditions noted are these: Homo sapiens, HEK293; 72 hour incubation, cell viability (ATP luminescence). How it is done:
as §1

The test system of a further test is HepG2. The test is described as above. The conditions noted are these: Homo sapiens, 72 hour incubation, cell viability (ATP luminescence). It is filed as cell-based. Here is the method: as §1
The subject of the next test is PANC-1. The test is described as above. It is filed as cell-based, human. The conditions noted are these: 72 hour incubation, cell viability (ATP luminescence). How it is done:
To obtain growth inhibition data of endodermal cancer cells for PIM kinase inhibitors, Compound 122 was tested against SNU-16, HepG2, MIA PaCa-2, SW480, DU145, HEK-293, PANC-1, and THLE-3 cell lines using CELL TITER-GLO® 2.0 Luminescent Cell Viability Assay (Promega Corporation, Madison, Wis.) at Reaction Biology Corporation (Maven, Pa.). All cell lines were purchased from American Type Culture Collection (ATCC, Manassas, Va.) and maintained in the recommended culture media in the presence of 10% fetal bovind serum, […] of penicillin and 100 µg/mL of streptomycin at 37° C. in a humidified atmosphere of 5% CO2 and 95% air. To initiate the growth inhibition study, Compound 122 was diluted in DMSO solution with 10-dose and 3-fold dilutions in a source plate starting at 50 mM. […] The cells in the cell culture plates were incubated with the compounds at 37° C. for 72 hours in a humidified atmosphere of 5% CO2 and 95% air. After a 72 hour incubation period, 25 μl of Cell Titer Glo 2.0 reagent was added to each well. The contents were mixed on an orbital shaker for 2 minutes and incubated at room temperature for 15 minutes to stabilize the luminescent signal. Luminescence was recorded by Envision 2104 Multilabel Reader (PerkinElmer, Santa Clara, Calif.). The number of viable cells in culture was determined based on quantitation of the ATP present in each culture well. […]

The mark [7] stands for this setting: competition binding, run in duplicate, read-out: Kd PIM1.
The mark [8] stands for this setting: competition binding, read-out: Kd PIM3.

Structures are written as SMILES. Several values for one entry are separate records, joined by “and”; a condition that tells them apart may be missing. Equal values may be shown once. Read-outs that look alike come from different tables or passages of the source. Where only a bound is given, the exact number is not on record here.

On to `O=C1NC(=O)c2c1c1c3ccccc3[nH]c1c1[nH]c3ccccc3c21` [Arcyriaflavin A, 12,13-dihydro-5H-indolo[2,3-a]pyrrolo[3,4-c]carbazole-5,7(6H)-dione, reference compound], for which the Kd on PIM1 [1] (setting [7]) was 0.021 µM; on PIM2 [4] it was 19 nM; on PIM3 [6] (setting [8]) it was 2 nM and 1.9 nM. For the same compound, the half-maximal inhibitory concentration (IC50) on PIM1 [2] came to 2.2 nM; at PIM2 [3] it was 21 nM; at PIM3 [5], 0.3 nM.

`O=C1NC(=O)c2c1c1c3ccccc3[nH]c1c1c2c2ccccc2n1CCN1CCOCC1` [Compound 3, 12,13-dihydro-12-(2-(4-morpholine)ethyl)-5H-Indolo[2,3-a]pyrrolo[3,4-c]carbazole-5,7(6H)-dione]: the values for the IC50 at PIM1 [2], at PIM2 [3] and at PIM3 [5] were 1.6 nM, 138 nM and 0.2 nM, respectively.

For `O=C1NC(=O)c2c1c1c3ccc(O)cc3[nH]c1c1[nH]c3cc(O)ccc3c21` [Compound 122], the Kd was determined as 0.011 µM on PIM1 [1] (setting [7]), 9 nM at PIM2 [4] and 3 nM on PIM3 [6] (setting [8]). Besides, the IC50 in the test on DU145 was 2330 nM; with THLE-3, 4620 nM; in the test with SW480, 2890 nM; in the test on SNU-16, 700 nM; in the test with MIA PaCa-2, 4810 nM; with HEK-293, 2700 nM. Also, the concentration for half-maximal inhibition (IC50) with HepG2 was 970 nM; on PIM1 [2] it was 0.5 nM; on PIM2 [3], 5.4 nM; at PIM3 [5], 0.03 nM. Also, the “IC50 PANC-1” value with PANC-1 is reported as “no inhibition”.

Turning to `O=C1NC(=O)c2c1c1c3cccc(O)c3[nH]c1c1[nH]c3c(O)cccc3c21` [Compound 123], the dissociation constant (Kd) was determined as 0.13 µM on PIM1 [1] (setting [7]), 84 nM on PIM2 [4] and 6.4 nM on PIM3 [6] (setting [8]). For the same compound, the IC50 at PIM1 [2] came to 3.9 nM; at PIM2 [3] it was 55 nM; on PIM3 [5] it was 0.2 nM.

With `O=C1NC(=O)c2c1c1c([nH]c3cccc(F)c31)c1[nH]c3cccc(F)c3c21` [Compound 128], the results for the Kd at PIM1 [1] (setting [7]), at PIM2 [4] and at PIM3 [6] (setting [8]) were 0.28 µM, 260 nM and 24 nM, respectively.

As for `O=C1NC(=O)c2c1c1c3cc(F)ccc3[nH]c1c1[nH]c3ccc(F)cc3c21` [Compound 129, 3,9-difluoro-arcyriaflavin A], the equilibrium dissociation constant (Kd) on PIM1 [1] (text value printed in μM, read-out: Kd for PIM1) is 2.5 µM; on PIM2 [4], 77 nM; at PIM3 [6] (setting [8]), 27 nM.

Take `O=C1NC(=O)c2c1c1c3ccc(F)cc3[nH]c1c1[nH]c3cc(F)ccc3c21` [Compound 130]: the dissociation constant (Kd) on PIM1 [1] (setting [7]) is 0.7 µM; at PIM2 [4], 150 nM; at PIM3 [6] (setting [8]), 48 nM.

For the compound `O=C1NC(=O)c2c1c1c3cccc(F)c3[nH]c1c1[nH]c3c(F)cccc3c21` [Compound 131], the Kd at PIM1 [1] (setting [7]) turned out to be 6.3 µM; at PIM2 [4], 2600 nM; at PIM3 [6] (setting [8]) it was 130 nM.

Take `O=C1NC(=O)c2c1c1c3cc(Br)ccc3[nH]c1c1[nH]c3ccc(Br)cc3c21` [Compound 137]: the Kd on PIM1 [1] (setting [7]) was > 10 µM; on PIM2 [4], > 10000 nM; at PIM3 [6] (setting [8]) it was > 10000 nM.

As to `O=C1NC(=O)c2c1c1c3ccc(Br)cc3[nH]c1c1[nH]c3cc(Br)ccc3c21` [Compound 138], the Kd is > 10 µM at PIM1 [1] (setting [7]), > 10000 nM on PIM2 [4] and > 10000 nM on PIM3 [6] (setting [8]).

With `O=C1NC(=O)c2c1c1c3cccc(Br)c3[nH]c1c1[nH]c3c(Br)cccc3c21` [Compound 139], the Kd on PIM1 [1] (setting [7]) is > 3 µM; at PIM2 [4] it was > 3000 nM; at PIM3 [6] (setting [8]), > 3000 nM.

Regarding `N#Cc1ccc2c(c1)[nH]c1c3[nH]c4cc(C#N)ccc4c3c3c(c21)C(=O)NC3=O` [Compound 146], the dissociation constant Kd was > 10 µM at PIM1 [1] (setting [7]), > 10000 nM on PIM2 [4] and > 10000 nM at PIM3 [6] (setting [8]).

Turning to `N#Cc1cccc2c1[nH]c1c3[nH]c4c(C#N)cccc4c3c3c(c21)C(=O)NC3=O` [Compound 147], the dissociation constant Kd is > 3 µM on PIM1 [1] (setting [7]), > 3000 nM at PIM2 [4] and > 3000 nM at PIM3 [6] (setting [8]).

As to `COC(=O)[C@@]1(O)C[C@H]2O[C@]1(C)n1c3ccccc3c3c4c(c5c6ccccc6n2c5c31)C(=O)NC4` [Compound K252a, K252a, reference compound], the Kd at PIM3 [6] (Kd PIM3, competition binding) was ~10 nM.

Regarding `CN(C)C[C@@H]1CCn2cc(c3ccccc32)C2=C(C(=O)NC2=O)c2cn(c3ccccc23)CCO1` [Ruboxistaurin, ruboxistaurin, reference compound], the concentration for half-maximal inhibition (IC50) is 7650 nM at PIM2 [3] and 10 nM at PIM3 [5].

By Kd is commonly meant a measure of binding affinity in units of concentration. One may read the IC50 as the concentration that gives 50% inhibition. Higher therefore signals weaker potency in that assay.

Source of the values: US11319320B2, “PIM kinase inhibitor compositions, methods, and uses thereof” (Snap Bio, Inc., priority 2017, dated 2022).
